Measured values: patent US8192962B2, “Processes for detecting toxic substances” (Daikin Industries, Ltd., priority 2001, dated 2012)

Test system: Transport facilitation protein genes
Experiment: DNA chip mRNA expression in yeast, transport facilitation protein genes (Table 5)
Format: cell-based, Saccharomyces cerevisiae S288C
In short: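 Values are treated/untreated fluorescence ratios from a whole-genome yeast DNA chip hybridized over 12 hours at 65° C with Cy3- or Cy5-labelled cDNA from poly(A) mRNA. Log-phase S288C yeast in YPD at 25° C had received a single toxic chemical for two hours, dosed to slow growth without killing.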

## manganese ethylenebis(dithiocarbamate) [(8)]
Yeast gene YGR224W
  The level of expressed mRNA in the presence of chemical substance/The level of expressed mRNA in the absence of chemical substance: 0.6
Yeast gene YGR260W
  The level of expressed mRNA in the presence of chemical substance/The level of expressed mRNA in the absence of chemical substance: 0.5
Yeast gene YGR281W
  The level of expressed mRNA in the presence of chemical substance/The level of expressed mRNA in the absence of chemical substance: 0.7
Yeast gene YHL035C
  The level of expressed mRNA in the presence of chemical substance/The level of expressed mRNA in the absence of chemical substance: 1.1
Yeast gene YHL040C
  The level of expressed mRNA in the presence of chemical substance/The level of expressed mRNA in the absence of chemical substance: 1.5
Yeast gene YHL047C
  The level of expressed mRNA in the presence of chemical substance/The level of expressed mRNA in the absence of chemical substance: 1.5
Yeast gene YHR026W
  The level of expressed mRNA in the presence of chemical substance/The level of expressed mRNA in the absence of chemical substance: 1.6
Yeast gene YHR092C
  The level of expressed mRNA in the presence of chemical substance/The level of expressed mRNA in the absence of chemical substance: 1.5
Yeast gene YHR094C
  The level of expressed mRNA in the presence of chemical substance/The level of expressed mRNA in the absence of chemical substance: 1.2
Yeast gene YHR175W
  The level of expressed mRNA in the presence of chemical substance/The level of expressed mRNA in the absence of chemical substance: 0.9
Yeast gene YIL006W
  The level of expressed mRNA in the presence of chemical substance/The level of expressed mRNA in the absence of chemical substance: 0.6
Yeast gene YIL022W
  The level of expressed mRNA in the presence of chemical substance/The level of expressed mRNA in the absence of chemical substance: 0.8
Yeast gene YIL056W
  The level of expressed mRNA in the presence of chemical substance/The level of expressed mRNA in the absence of chemical substance: 0.7
Yeast gene YIL088C
  The level of expressed mRNA in the presence of chemical substance/The level of expressed mRNA in the absence of chemical substance: 0.8
Yeast gene YJL034W
  The level of expressed mRNA in the presence of chemical substance/The level of expressed mRNA in the absence of chemical substance: 1.5
Yeast gene YJL212C
  The level of expressed mRNA in the presence of chemical substance/The level of expressed mRNA in the absence of chemical substance: 0.7
Yeast gene YJL219W
  The level of expressed mRNA in the presence of chemical substance/The level of expressed mRNA in the absence of chemical substance: 1.5
Yeast gene YJR077C
  The level of expressed mRNA in the presence of chemical substance/The level of expressed mRNA in the absence of chemical substance: 0.8
Yeast gene YJR106W
  The level of expressed mRNA in the presence of chemical substance/The level of expressed mRNA in the absence of chemical substance: 0.9
Yeast gene YJR121W
  The level of expressed mRNA in the presence of chemical substance/The level of expressed mRNA in the absence of chemical substance: 0.7
Yeast gene YKL016C
  The level of expressed mRNA in the presence of chemical substance/The level of expressed mRNA in the absence of chemical substance: 1.6
Yeast gene YKL146W
  The level of expressed mRNA in the presence of chemical substance/The level of expressed mRNA in the absence of chemical substance: 0.8
Yeast gene YKR039W
  The level of expressed mRNA in the presence of chemical substance/The level of expressed mRNA in the absence of chemical substance: 1.0
Yeast gene YKR067W
  The level of expressed mRNA in the presence of chemical substance/The level of expressed mRNA in the absence of chemical substance: 0.8
Yeast gene YLL028W
  The level of expressed mRNA in the presence of chemical substance/The level of expressed mRNA in the absence of chemical substance: 0.7
Yeast gene YLR081W
  The level of expressed mRNA in the presence of chemical substance/The level of expressed mRNA in the absence of chemical substance: 0.9
Yeast gene YLR295C
  The level of expressed mRNA in the presence of chemical substance/The level of expressed mRNA in the absence of chemical substance: 1.2
Yeast gene YLR348C
  The level of expressed mRNA in the presence of chemical substance/The level of expressed mRNA in the absence of chemical substance: 0.9
Yeast gene YLR378C
  The level of expressed mRNA in the presence of chemical substance/The level of expressed mRNA in the absence of chemical substance: 0.5
Yeast gene YMR011W
  The level of expressed mRNA in the presence of chemical substance/The level of expressed mRNA in the absence of chemical substance: 1.1
Yeast gene YMR162C
  The level of expressed mRNA in the presence of chemical substance/The level of expressed mRNA in the absence of chemical substance: 0.8
Yeast gene YMR203W
  The level of expressed mRNA in the presence of chemical substance/The level of expressed mRNA in the absence of chemical substance: 0.7
Yeast gene YNL055C
  The level of expressed mRNA in the presence of chemical substance/The level of expressed mRNA in the absence of chemical substance: 0.7
Yeast gene YNL259C
  The level of expressed mRNA in the presence of chemical substance/The level of expressed mRNA in the absence of chemical substance: 1.5
Yeast gene YNR072W
  The level of expressed mRNA in the presence of chemical substance/The level of expressed mRNA in the absence of chemical substance: 0.9
Yeast gene YOL119C
  The level of expressed mRNA in the presence of chemical substance/The level of expressed mRNA in the absence of chemical substance: 2.0
Yeast gene YOL156W
  The level of expressed mRNA in the presence of chemical substance/The level of expressed mRNA in the absence of chemical substance: 1.0
Yeast gene YOL163W
  The level of expressed mRNA in the presence of chemical substance/The level of expressed mRNA in the absence of chemical substance: 1.1
Yeast gene YOR035C
  The level of expressed mRNA in the presence of chemical substance/The level of expressed mRNA in the absence of chemical substance: 1.0
Yeast gene YOR130C
  The level of expressed mRNA in the presence of chemical substance/The level of expressed mRNA in the absence of chemical substance: 0.8
Yeast gene YOR153W
  The level of expressed mRNA in the presence of chemical substance/The level of expressed mRNA in the absence of chemical substance: 0.5
Yeast gene YOR273C
  The level of expressed mRNA in the presence of chemical substance/The level of expressed mRNA in the absence of chemical substance: 0.6
Yeast gene YOR316C
  The level of expressed mRNA in the presence of chemical substance/The level of expressed mRNA in the absence of chemical substance: 0.8
Yeast gene YOR332W
  The level of expressed mRNA in the presence of chemical substance/The level of expressed mRNA in the absence of chemical substance: 1.5
Yeast gene YOR348C
  The level of expressed mRNA in the presence of chemical substance/The level of expressed mRNA in the absence of chemical substance: 0.8
Yeast gene YPL036W
  The level of expressed mRNA in the presence of chemical substance/The level of expressed mRNA in the absence of chemical substance: 0.5
Yeast gene YPL134C
  The level of expressed mRNA in the presence of chemical substance/The level of expressed mRNA in the absence of chemical substance: 1.3
Yeast gene YPL271W
  The level of expressed mRNA in the presence of chemical substance/The level of expressed mRNA in the absence of chemical substance: 0.9
Yeast gene YPR192W
  The level of expressed mRNA in the presence of chemical substance/The level of expressed mRNA in the absence of chemical substance: 0.6
Yeast gene YPR194C
  The level of expressed mRNA in the presence of chemical substance/The level of expressed mRNA in the absence of chemical substance: 1.0
